# Molecular target: T1, human PAH with the R408W mutation (Homo sapiens, UniProt P00439, R408W)
# T1 construct: expressed in transfected cells
# T1 sequence (P00439 1-452 R408W): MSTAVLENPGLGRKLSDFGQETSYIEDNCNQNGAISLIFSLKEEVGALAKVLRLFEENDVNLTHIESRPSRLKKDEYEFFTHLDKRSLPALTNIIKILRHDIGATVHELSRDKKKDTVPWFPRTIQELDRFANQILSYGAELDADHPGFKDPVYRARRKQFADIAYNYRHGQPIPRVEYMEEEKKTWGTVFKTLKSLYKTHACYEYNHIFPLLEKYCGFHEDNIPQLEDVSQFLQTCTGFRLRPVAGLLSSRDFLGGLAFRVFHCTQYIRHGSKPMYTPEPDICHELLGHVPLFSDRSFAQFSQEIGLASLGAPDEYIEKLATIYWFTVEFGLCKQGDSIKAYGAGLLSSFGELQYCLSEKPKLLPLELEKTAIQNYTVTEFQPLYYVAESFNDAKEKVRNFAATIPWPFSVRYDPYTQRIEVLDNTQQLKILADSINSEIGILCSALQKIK
# Experiment: Cell Based Phenylalanine Flux Assay
# Set-up: scale not given here
# Settings: A375 cells expressing human R408W PAH; 24 hrs compound incubation; 13C-Tyrosine by LC-MS; average where tested multiple times; read-out: AC50
row,SMILES,AC50 [nM]
1,"c1ccc2[nH]c([C@H]3c4nc[nH]c4CCN3Cc3nccs3)nc2c1 (single isomer, unassigned) [Example 926]",> 5000
2,"c1ccc2[nH]c([C@@H]3c4nc[nH]c4CCN3Cc3nccs3)nc2c1 (single isomer, unassigned) [Example 927]",< 500
3,"O=C(CC1CC1(F)F)N1CCc2[nH]cnc2[C@H]1c1nc2ccccc2s1 (single isomer, unassigned) [Example 1271]",< 500
4,"O=C(CC1CC1(F)F)N1CCc2[nH]cnc2[C@H]1c1nc2ccccc2s1 (single isomer, unassigned) [Example 1274]",500 to 1000
5,"O=C(C1CC1(F)F)N1CCc2[nH]cnc2[C@@H]1c1nc2ccccc2s1 (single isomer, unassigned) [Example 1285]",> 5000
6,"O=C(C1CC1(F)F)N1CCc2[nH]cnc2[C@@H]1c1nc2ccccc2s1 (single isomer, unassigned) [Example 1286]",1000 to 5000
7,"O=C(C1CC1(F)F)N1CCc2[nH]cnc2[C@H]1c1nc2ccccc2s1 (single isomer, unassigned) [Example 1287]",> 5000

# Results, then the compound that gave them:
row,AC50 [nM],SMILES
1,500 to 1000,"O=C(C1CC1(F)F)N1CCc2[nH]cnc2[C@H]1c1nc2ccccc2s1 (single isomer, unassigned) [Example 1288]"
2,1000 to 5000,"CC1(C(=O)N2CCc3[nH]cnc3[C@@H]2c2nc3ccccc3s2)CC1(F)F (single isomer, unassigned) [Example 1289]"
3,> 5000,"CC1(C(=O)N2CCc3[nH]cnc3[C@@H]2c2nc3ccccc3s2)CC1(F)F (single isomer, unassigned) [Example 1290]"
4,500 to 1000,"CC1(C(=O)N2CCc3[nH]cnc3[C@H]2c2nc3ccccc3s2)CC1(F)F (single isomer, unassigned) [Example 1291]"
5,1000 to 5000,"CC1(C(=O)N2CCc3[nH]cnc3[C@H]2c2nc3ccccc3s2)CC1(F)F (single isomer, unassigned) [Example 1292]"
6,< 500,"O=C(c1nnc(-c2ccc(F)cn2)o1)N1CCc2[nH]cnc2[C@H]1c1nc2ccccc2s1 (single isomer, unassigned) [Example 1365]"
7,1000 to 5000,"Nc1cnc(N2CCc3[nH]cnc3[C@@H]2c2nc3ccccc3s2)nc1 (single isomer, unassigned) [Example 1467]"
8,500 to 1000,"Nc1cnc(N2CCc3[nH]cnc3[C@H]2c2nc3ccccc3s2)nc1 (single isomer, unassigned) [Example 1468]"
9,< 500,"CC(O)(c1nc(C(F)(F)F)c(C(=O)N2CCc3[nH]cnc3[C@H]2c2nc3ccccc3s2)o1)C1CC1 (single isomer, unassigned) [Example 1561]"
10,< 500,"CC(O)(c1nc(C(F)(F)F)c(C(=O)N2CCc3[nH]cnc3[C@H]2c2nc3ccccc3s2)o1)C1CC1 (single isomer, unassigned) [Example 1562]"
11,< 500,"CC(O)(c1nc(C(F)(F)F)c(C(=O)N2CCc3[nH]cnc3[C@@H]2c2nc3ccccc3s2)o1)C1CC1 (single isomer, unassigned) [Example 1563]"
12,< 500,"CC(O)(c1nc(C(F)(F)F)c(C(=O)N2CCc3[nH]cnc3[C@@H]2c2nc3ccccc3s2)o1)C1CC1 (single isomer, unassigned) [Example 1564]"
13,< 500,"CC(O)c1nc(Br)c(C(=O)N2CCc3[nH]cnc3[C@H]2c2nc3c(F)cccc3s2)o1 (single isomer, unassigned) [Example 2057]"
14,< 500,"CC(O)c1nc(Br)c(C(=O)N2CCc3[nH]cnc3[C@H]2c2nc3c(F)cccc3s2)o1 (single isomer, unassigned) [Example 2058]"
15,1000 to 5000,"CC(O)c1nc(Br)c(C(=O)N2CCc3[nH]cnc3[C@@H]2c2nc3c(F)cccc3s2)o1 (single isomer, unassigned) [Example 2059]"
16,500 to 1000,"CC(O)c1nc(Br)c(C(=O)N2CCc3[nH]cnc3[C@@H]2c2nc3c(F)cccc3s2)o1 (single isomer, unassigned) [Example 2060]"
17,< 500,"CC(F)c1nc(C(F)F)c(C(=O)N2CCc3[nH]cnc3[C@H]2c2nc3c(F)cccc3s2)o1 (single isomer, unassigned) [Example 2073]"
18,< 500,"CC(F)c1nc(C(F)F)c(C(=O)N2CCc3[nH]cnc3[C@H]2c2nc3c(F)cccc3s2)o1 (single isomer, unassigned) [Example 2074]"
19,< 500,"CC(F)c1nc(C(F)F)c(C(=O)N2CCc3[nH]cnc3[C@H]2c2nc3c(F)cccc3s2)o1 (single isomer, unassigned) [Example 2075]"
20,< 500,"CC(O)c1nc(Cl)c(C(=O)N2CCc3[nH]cnc3[C@H]2c2nc3c(F)cccc3s2)o1 (single isomer, unassigned) [Example 2079]"
21,500 to 1000,"CC(O)c1nc(Cl)c(C(=O)N2CCc3[nH]cnc3[C@H]2c2nc3c(F)cccc3s2)o1 (single isomer, unassigned) [Example 2080]"
22,1000 to 5000,"CC(O)c1nc(Cl)c(C(=O)N2CCc3[nH]cnc3[C@@H]2c2nc3c(F)cccc3s2)o1 (single isomer, unassigned) [Example 2081]"
23,1000 to 5000,"CC(O)c1nc(Cl)c(C(=O)N2CCc3[nH]cnc3[C@@H]2c2nc3c(F)cccc3s2)o1 (single isomer, unassigned) [Example 2082]"
24,500 to 1000,"CN(C)CCc1nc(C(F)(F)F)c(C(=O)N2CCCc3[nH]cnc3[C@H]2c2nc3ccccc3s2)o1 (single isomer, unassigned) [Example 2125]"
25,1000 to 5000,"CN(C)CCc1nc(C(F)(F)F)c(C(=O)N2CCCc3[nH]cnc3[C@@H]2c2nc3ccccc3s2)o1 (single isomer, unassigned) [Example 2126]"

# Same assay, conditions: A375 cells expressing human R408W PAH; 24 hrs with compound; 13C-Tyrosine by LC-MS; average where tested multiple times
row,AC50,SMILES
1,"E, E","COCCc1ncc(C(=O)N2CC(C)c3[nH]cnc3C2c2nc3ccccc3s2)o1 [(4R,7R) diastereomer of 2-[5-[2-(2-methoxyethyl)-1,3-oxazole]"
2,"E, E","COCCc1ncc(C(=O)N2CC(C)c3[nH]cnc3C2c2nc3ccccc3s2)o1 [(4R,7S) diastereomer of 2-[5-[2-(2-methoxyethyl)-1,3-oxazole]"

# Same assay, conditions: A375 cells expressing human R408W PAH; 24 hrs with compound; 13C-Tyrosine by LC-MS; average where tested multiple times; read-out: AC50
row,SMILES,AC50 [nM]
1,"CC(=O)Cn1ncc(C(=O)N2CCc3[nH]cnc3[C@@H]2c2nc3c(F)cccc3s2)c1Cl (single isomer, unassigned)",> 5000
2,"Cn1nc(C2CC2)cc1C(=O)N1CCc2[nH]cnc2[C@@H]1c1nc2c(F)cccc2s1 (single isomer, unassigned)",> 5000
3,"Cc1noc(C(=O)N2CCc3[nH]cnc3[C@@H]2c2nc3ccccc3s2)n1 (single isomer, unassigned)",> 5000
4,"Cn1ncc(C(=O)N2CCc3[nH]cnc3[C@@H]2c2nc3c(F)cccc3s2)c1Br (single isomer, unassigned)",> 5000
5,"Cn1ncnc1C(=O)N1CCc2[nH]cnc2[C@@H]1c1nc2c(F)cccc2s1 (single isomer, unassigned)",> 5000
6,"Cc1nc(C(C)(C)S(C)(=O)=O)oc1C(=O)N1CCc2[nH]cnc2[C@@H]1c1nc2c(F)cccc2s1 (single isomer, unassigned)",> 5000
7,"CN(C)CCCc1nnc(C(=O)N2CCc3[nH]cnc3[C@@H]2c2nc3ccccc3s2)o1 (single isomer, unassigned)",> 5000
8,"Cn1nc(CO)cc1C(=O)N1CCc2[nH]cnc2[C@@H]1c1nc2c(F)cccc2s1 (single isomer, unassigned)",> 5000
9,"COC(=O)N1CC(C(=O)N2CCc3[nH]cnc3[C@@H]2c2nc3c(F)cccc3s2)C1 (single isomer, unassigned)",> 5000
10,"O=C(C1CN(CC(F)(F)F)C1)N1CCc2[nH]cnc2[C@H]1c1nc2ccccc2s1 (single isomer, unassigned)",1000 to 5000
11,"Cc1nnc(N2CC(C(=O)N3CCc4[nH]cnc4[C@H]3c3nc4ccccc4s3)C2)o1 (single isomer, unassigned)",> 5000
12,"Cc1c(C(=O)N2CCc3[nH]cnc3[C@H]2c2nc3c(F)cccc3s2)cnn1C (single isomer, unassigned)",1000 to 5000
13,"Cc1nc(CCC2CC2)oc1C(=O)N1CCCc2[nH]cnc2[C@H]1c1nc2ccccc2s1 (single isomer, unassigned)",1000 to 5000
14,"Cn1nc(CC#N)nc1C(=O)N1CCc2[nH]cnc2[C@H]1c1nc2ccccc2s1 (single isomer, unassigned)",1000 to 5000
15,"CC(C)(O)c1cc(C(=O)N2CCc3[nH]cnc3[C@H]2c2nc3ccccc3s2)sn1 (single isomer, unassigned)",1000 to 5000
16,"CN(C)CCCc1nnc(C(=O)N2CCc3[nH]cnc3[C@H]2c2nc3ccccc3s2)o1 (single isomer, unassigned)",1000 to 5000
17,"Cc1nc(-c2ccccn2)oc1C(=O)N1CC2(CC2)c2[nH]cnc2[C@H]1c1nc2ccccc2s1 (single isomer, unassigned)",1000 to 5000
18,"O=C(N1CCC(O)C1)N1CCc2[nH]cnc2C1c1nc2ccccc2s1 [4S enantiomer of (3R)-1-[4-(1,3-benzothiazol-2-yl)-1H,4H,5H,]",1000 to 5000
19,"O=C(Cc1nc(C(F)(F)F)cs1)N1CCc2[nH]cnc2[C@H]1c1nc2ccccc2[nH]1 [(S)-1-(4-(1H-benzo[d]imidazol-2-yl)-1,4,6,7-tetrahydro-5H-imidazo[4,5-c]pyridin-5-yl)-2-(4-(trifluoromethyl)thiazol-2-yl)ethan-1-one]",1000 to 5000
20,"O=C(Cc1ccc(F)cc1)N1CCc2[nH]cnc2[C@H]1c1nc2ccccc2[nH]1 [(S)-1-(4-(1H-benzo[d]imidazol-2-yl)-1,4,6,7-tetrahydro-5H-imidazo[4,5-c]pyridin-5-yl)-2-(4-fluorophenyl)ethan-1-one]",1000 to 5000
